Where two headings read alike, the source gives them in different places.
Molecular target: T1, progesterone receptors (PR) (Homo sapiens, UniProt P06401)
T1 sequence (P06401 1-933): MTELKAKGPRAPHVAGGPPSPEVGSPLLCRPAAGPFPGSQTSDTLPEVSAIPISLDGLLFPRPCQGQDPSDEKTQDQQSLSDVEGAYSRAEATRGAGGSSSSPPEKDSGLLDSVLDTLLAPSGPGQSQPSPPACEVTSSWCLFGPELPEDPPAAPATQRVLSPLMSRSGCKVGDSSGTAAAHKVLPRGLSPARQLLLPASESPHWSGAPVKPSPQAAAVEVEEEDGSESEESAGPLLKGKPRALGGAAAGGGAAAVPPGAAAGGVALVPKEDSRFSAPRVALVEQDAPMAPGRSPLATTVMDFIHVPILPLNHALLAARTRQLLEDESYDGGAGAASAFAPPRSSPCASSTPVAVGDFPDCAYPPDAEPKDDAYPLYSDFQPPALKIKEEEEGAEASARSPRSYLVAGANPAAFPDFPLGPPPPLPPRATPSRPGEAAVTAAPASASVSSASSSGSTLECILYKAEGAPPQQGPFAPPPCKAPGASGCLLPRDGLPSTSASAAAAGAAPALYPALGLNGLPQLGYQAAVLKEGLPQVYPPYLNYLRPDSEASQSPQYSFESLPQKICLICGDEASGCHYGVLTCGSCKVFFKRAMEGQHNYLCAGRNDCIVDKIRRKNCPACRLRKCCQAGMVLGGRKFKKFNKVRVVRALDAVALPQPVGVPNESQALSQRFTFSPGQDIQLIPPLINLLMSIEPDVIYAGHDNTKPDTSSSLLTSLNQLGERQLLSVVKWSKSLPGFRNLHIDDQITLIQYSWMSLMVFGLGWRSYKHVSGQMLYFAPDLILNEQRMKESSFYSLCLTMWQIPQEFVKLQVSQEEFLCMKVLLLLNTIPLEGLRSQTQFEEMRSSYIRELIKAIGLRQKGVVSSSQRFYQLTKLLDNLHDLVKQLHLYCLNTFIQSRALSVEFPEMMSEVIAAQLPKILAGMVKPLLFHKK
Assay: PRE luciferase reporter assay and Quantigene branched DNA assay (TF, PPL) for progestin activity in T47D cells
Type: cell-based
Settings: read-out: efficacies (percentage of the maximum P4 response)
Protocol: Progestin activity was measured using a common luciferase reporter system in cells expressing endogenous progesterone receptors (PR). T47D breast cancer cells were plated at 50,000 cells/well in 96 well plates in DMEM/F-12 supplemented with penicillin/streptomycin, Glutamax and 5% FBS (Gibco). Cells were infected with a 1:1000 dilution of an adenovirus vector expressing luciferase under the control of three copies of a consensus progesterone receptor regulatory element (PRE) located in the promoter region. Following a two-hour post-infection recovery, cells were treated for 20 hours with progesterone (P4) or test compounds. Luciferase reporter activity was quantified using the Luciferase Assay System (Promega) and a Victor2 luminometer (Perkin Elmer).
T47D cells were plated as in the PRE assay and treated with compound for 15 hours. Expression of tissue factor (TF), a PR-β isoform regulated gene, or periplakin (PPL), a PR-A regulated gene, was measured by the Quantigene branched DNA assay (Genospectra) using the Victor2 luminometer following the manufacturer's recommended protocol.
EC50 values were determined using the dose response nonlinear fit model from the SAS statistics package (SAS Institute Inc). Efficacies were calculated as a percentage of the maximum P4 response.

Emax (T47D breast cancer cells, percentage of maximum progesterone (P4) response, the text does not say which assay (PRE luciferase, TF, PPL) each value comes from) [%]	Compound	Emax (T47D) [%]
–	CC1(C)C(=O)C=CC2(C)C3(C)c4[nH]c5ccccc5c4CC3CCC12O (centres unmarked) [4a-hydroxy-4,4,12b,12c-tetramethyl-4a,5,6,6a,7,12,12b,12c-octahydrobenzo[6,7]indeno[1,2-b]indol-3(4H)-one]	< 1
< 1	CO[C@H]1[C@H](O)[C@@H](O)[C@@H](Oc2ccc3c4c([nH]c3c2)[C@]2(C)[C@H](CC[C@@H]3C(C)(C)C(=O)C=C[C@]32C)C4)O[C@@H]1CO [(4aS,6aR,12bR,12cR)-4,4,12b,12c-tetramethyl-3-oxo-3,4,4a,5,6,6a,7,12,12b,12c-decahydrobenzo[6,7]indeno[1,2-b]indol-10-yl 4-O-methyl-α-D-glucopyranoside]	–

Source: patent publication US20080306131A1, “Progesterone receptor modulator and uses thereof” (Wyeth, priority 2007, published 2008)
